Our source for the inhibition and IC50 values is ChEMBL document CHEMBL4028808, “Design and synthesis of selective CDK8/19 dual inhibitors: Discovery of 4,5-dihydrothieno[3',4':3,4]benzo[1,2-d]isothiazole derivatives” (Bioorg Med Chem, 2017).

Structures are written as SMILES. The source made the active and inactive calls. The rule behind the calls is not given here.

Experiment [1] has as its target T1, Cyclin-dependent kinase 9 (Homo sapiens, UniProt P50750). In words: Inhibition of CDK9 (unknown origin) at 1 uM relative to control.
The target in experiment [2] is Serine/threonine-protein kinase Chk1 (Homo sapiens) (UniProt O14757). Briefly: Inhibition of CHK1 (unknown origin) at <1 uM using CHKtide as substrate preincubated for 5 mins followed by substrate addition measured after 10 mins in presence of [gamma33P]ATP by scintillation counter method.
Sequence of Serine/threonine-protein kinase Chk1 (Homo sapiens) (O14757 whole entry): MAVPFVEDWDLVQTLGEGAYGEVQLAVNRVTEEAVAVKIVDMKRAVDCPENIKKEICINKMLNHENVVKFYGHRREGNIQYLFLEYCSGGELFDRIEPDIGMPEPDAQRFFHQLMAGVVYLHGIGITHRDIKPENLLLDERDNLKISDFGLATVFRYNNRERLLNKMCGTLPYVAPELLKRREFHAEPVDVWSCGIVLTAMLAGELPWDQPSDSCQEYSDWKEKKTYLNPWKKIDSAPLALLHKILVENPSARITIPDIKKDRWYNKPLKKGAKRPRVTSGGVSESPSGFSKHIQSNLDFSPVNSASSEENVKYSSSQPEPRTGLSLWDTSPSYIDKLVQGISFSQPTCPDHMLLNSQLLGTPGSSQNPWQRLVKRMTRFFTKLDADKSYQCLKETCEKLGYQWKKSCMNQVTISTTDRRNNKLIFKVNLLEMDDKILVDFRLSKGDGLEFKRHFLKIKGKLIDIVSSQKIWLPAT
The target in experiment [3] is T1, Cyclin-dependent kinase 9. In words: Inhibition of CDK9 (unknown origin).
Experiment [4] has as its target Proto-oncogene tyrosine-protein kinase Src (Homo sapiens) (UniProt P12931). In words: Inhibition of SRC (unknown origin) at <1 uM using biotinylated poly[Glu:Tyr] (4:1) as substrate pretreated for 5 mins followed by substrate addition measured after 10 mins by Alphascreen assay. (Bead proximity is the source of the signal in Alpha formats.)

T1 sequence (P50750 whole entry): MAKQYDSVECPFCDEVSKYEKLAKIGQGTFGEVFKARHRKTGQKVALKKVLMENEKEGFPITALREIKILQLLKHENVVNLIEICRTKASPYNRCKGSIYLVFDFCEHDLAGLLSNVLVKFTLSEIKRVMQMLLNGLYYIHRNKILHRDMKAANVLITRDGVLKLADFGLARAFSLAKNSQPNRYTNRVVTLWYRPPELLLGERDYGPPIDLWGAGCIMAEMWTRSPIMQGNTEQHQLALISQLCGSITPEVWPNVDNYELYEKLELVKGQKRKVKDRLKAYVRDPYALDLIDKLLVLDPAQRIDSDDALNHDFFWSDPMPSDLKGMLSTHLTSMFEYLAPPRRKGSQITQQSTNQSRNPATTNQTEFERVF
Sequence of Proto-oncogene tyrosine-protein kinase Src (Homo sapiens) (P12931 2-536 limits assumed): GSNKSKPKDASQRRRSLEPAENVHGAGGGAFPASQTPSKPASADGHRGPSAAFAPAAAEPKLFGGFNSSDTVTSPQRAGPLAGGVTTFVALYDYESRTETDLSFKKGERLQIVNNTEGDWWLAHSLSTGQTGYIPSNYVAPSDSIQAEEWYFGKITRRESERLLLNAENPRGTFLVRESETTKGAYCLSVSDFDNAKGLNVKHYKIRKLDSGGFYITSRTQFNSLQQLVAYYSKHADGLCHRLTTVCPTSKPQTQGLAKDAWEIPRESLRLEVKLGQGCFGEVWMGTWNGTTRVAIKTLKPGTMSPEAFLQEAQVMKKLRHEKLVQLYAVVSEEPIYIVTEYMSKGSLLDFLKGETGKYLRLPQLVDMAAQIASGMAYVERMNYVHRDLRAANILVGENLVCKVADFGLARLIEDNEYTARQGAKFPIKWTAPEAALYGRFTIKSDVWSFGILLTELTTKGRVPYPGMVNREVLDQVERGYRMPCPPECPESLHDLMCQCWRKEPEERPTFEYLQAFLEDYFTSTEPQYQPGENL

The term inhibition denotes the share of the control response that was lost under treatment. Broadly, the IC50 is the concentration at which inhibition is half-maximal. A high value points to a need for much substance. `COCCNC(=O)c1ccc(Oc2sc(C(N)=O)c3c2-c2sncc2CC3)cn1`: in experiment [1], the inhibition was determined as 83%. In addition, the inhibition entry in experiment [2] and in experiment [4] was “inactive” each time. This molecule also yielded an IC50 in experiment [3] of 270 nM.
